What is called Papp is the rate of passage across a membrane or cell layer, normalised by area and donor concentration. What is called efflux ratio is a quotient of directional permeabilities that is used to spot active efflux.

Where only a bound is given, the exact number is not on record here.

These results are taken from PMC7408396, “IPEC-J2 rMdr1a, a New Cell Line with Functional Expression of Rat P-glycoprotein Encoded by Rat Mdr1a for Drug Screening Purposes” (Pharmaceutics, 2020).

Details of data set [1]: method as in PMID 27194478. Particulars: murine / rodent animal models; cited from earlier work.
The target in data set [2] is T1, human P-gp (Homo sapiens, UniProt P08183). Further details: expressed in transfected cells; host or cells: IPEC-J2 (porcine intestinal epithelial cells), previously established IPEC-J2 MDR1 line; method as in PMID 27194478. The following applies: MDCK II MDR1 cell monolayers; cited from earlier work.
The target in data set [3] is T1, human P-gp. The following applies: IPEC-J2 MDR1 cells overexpressing human P-gp; cited from earlier work.
The next data set deals with T2, P-gp (human MDR1) (Homo sapiens, UniProt P08183).
T2 construct: expressed in transfected cells; host or cells: IPEC-J2 (porcine intestinal epithelial cells), previously established IPEC-J2 MDR1 line
The data set can be described thus: Bidirectional transport across IPEC-J2 MDR1 cell monolayers. The data set is classed as in vitro ADME. The following applies: for Papp A→B at 120 min / Papp B→A at 120 min: pH 7.4, Figure 5, mean ± SEM; for Papp A→B at 120 min: read-out: apparent permeability A–B; for Papp B→A at 120 min: read-out: apparent permeability B–A; for efflux ratio at 120 min: pH 7.4, Figure 5 comparison series. As for the experimental part: (§1) The cell monolayers were washed and pre-incubated in transport buffer consisting of 10 mM HEPES, 0.05% BSA and 0.038% sodium bicarbonate in HBSS pH 7.4 for 15 min at 37 °C on a shaking table (Unimax 2010, Heidolph, Schwabach, Germany) with a rotation of 75–90 rpm. The buffer was removed, and the transport experiments were initiated by the addition of donor solution containing radio-labelled compound in transport buffer in a concentration of 0.5 or 1 μ Ci/mL to either the apical or the basolateral chamber. […] Receiver samples were collected after 15, 30, 45, 60, 90 and 120 min from the basolateral (100 µL) or the apical chamber (50 µL), respectively.
(§2) Based on data from transport experiments, the apparent permeability coefficients (Papp) were calculated using Equation (1):(1) Papp = J/C0 = Qt/C0At where J denotes the steady-state flux (nmol·cm^−2·min^−1), C0 is the initial concentration in the donor compartment, A is the cross-sectional area of the permeable inserts (1.13 cm^2) and Qt represents the accumulated amount of drug in the receiver compartment at time t in minutes (corrected for the dilution arising from replacement of the sampled volume with blank transport buffer).

Data set [4] is described as follows: Bidirectional transport across IPEC-J2 wild-type (WT) cell monolayers. The data set is classed as in vitro ADME, porcine. The following applies: pig, pH 7.4, mean ± SEM. As to the method: as §1, §2
The test system of another data set is P-gp (rat Mdr1a). Nature of the data set: in vitro. The following applies: for efflux ratio at 120 min: pH 7.4, efflux ratio, Figure 5 comparison series.
The next data set concerns mouse Mdr1a. Also on record: method as in PMID 17045309. Particulars: mouse Mdr1a-transfected LLC-PK1 and MDCK monolayers; cited from earlier work.
Data set [5] deals with T1, human P-gp. Further details: expressed in transfected cells; method as in PMID 17045309. The following applies: cell monolayers overexpressing human P-gp; cited from earlier work.
For data set [6], the system named is P-gp (rat Mdr1a and human MDR1). Nature of the data set: in vitro. The following applies: human, pH 7.4, apparent permeability values (span over both directions), A–B and B–A, across both IPEC-J2 rMdr1a and IPEC-J2 MDR1 monolayers.
Data set [7] relates to IPEC-J2 mock cells. Nature of the data set: Puromycin selection of IPEC-J2 mock cells. The following applies: 2 μg/mL puromycin. The data set is classed as cell-based, porcine. As to the method:
(§3) The rat Mdr1a cDNA, codon-optimized for expression in Sus scrofa, was synthesized by Geneart (Regensburg, Germany) and inserted in the pcDNA3.1 (+) cloning vector under control of a cytomegalovirus (CMV) promoter (see Supplemental Figure S1) and purchased from Geneart (Regensburg, Germany). […] Cells were seeded on permeable Transwell® inserts (1.13 cm^2 surface area, 0.4 µm pore size) at a density of 4 × 10^4 cells/insert and cultured for 15–18 days (with culture medium change three times per week) prior to experimentation.

Another data set deals with rMDR1a-transfected cells. The data set can be described thus: Puromycin selection of rMdr1a-transfected IPEC-J2 cells. The data set is classed as cell-based, porcine. The following applies: 2 μg/mL puromycin. As to the method: as §3
A further data set deals with rat Mdr1a P-gp. Particulars: IPEC-J2 rMdr1a monolayers.
Another data set relates to rat Mdr1a. Further details: method as in PMID 16779700. Particulars: LLC-PK1 cells transfected with rat Mdr1a; cited from earlier work.
Another data set has as its system human MDR1. Further details: method as in PMID 16779700. Particulars: LLC-PK1 cells transfected with human MDR1; cited from earlier work.
Data set [8] deals with IPEC-J2 mock cells. The data set can be described thus: Bidirectional transport across IPEC-J2 mock cell monolayers (empty pcDNA 3.1(+) vector). Particulars: 0.4 µM zosuquidar, Supplemental Figure S2.
The mark [9] stands for this setting: pH 7.4, apparent permeability A–B, IPEC-J2 rMdr1a monolayers, Figure 5, mean ± SEM.

T2 sequence (P08183 whole entry): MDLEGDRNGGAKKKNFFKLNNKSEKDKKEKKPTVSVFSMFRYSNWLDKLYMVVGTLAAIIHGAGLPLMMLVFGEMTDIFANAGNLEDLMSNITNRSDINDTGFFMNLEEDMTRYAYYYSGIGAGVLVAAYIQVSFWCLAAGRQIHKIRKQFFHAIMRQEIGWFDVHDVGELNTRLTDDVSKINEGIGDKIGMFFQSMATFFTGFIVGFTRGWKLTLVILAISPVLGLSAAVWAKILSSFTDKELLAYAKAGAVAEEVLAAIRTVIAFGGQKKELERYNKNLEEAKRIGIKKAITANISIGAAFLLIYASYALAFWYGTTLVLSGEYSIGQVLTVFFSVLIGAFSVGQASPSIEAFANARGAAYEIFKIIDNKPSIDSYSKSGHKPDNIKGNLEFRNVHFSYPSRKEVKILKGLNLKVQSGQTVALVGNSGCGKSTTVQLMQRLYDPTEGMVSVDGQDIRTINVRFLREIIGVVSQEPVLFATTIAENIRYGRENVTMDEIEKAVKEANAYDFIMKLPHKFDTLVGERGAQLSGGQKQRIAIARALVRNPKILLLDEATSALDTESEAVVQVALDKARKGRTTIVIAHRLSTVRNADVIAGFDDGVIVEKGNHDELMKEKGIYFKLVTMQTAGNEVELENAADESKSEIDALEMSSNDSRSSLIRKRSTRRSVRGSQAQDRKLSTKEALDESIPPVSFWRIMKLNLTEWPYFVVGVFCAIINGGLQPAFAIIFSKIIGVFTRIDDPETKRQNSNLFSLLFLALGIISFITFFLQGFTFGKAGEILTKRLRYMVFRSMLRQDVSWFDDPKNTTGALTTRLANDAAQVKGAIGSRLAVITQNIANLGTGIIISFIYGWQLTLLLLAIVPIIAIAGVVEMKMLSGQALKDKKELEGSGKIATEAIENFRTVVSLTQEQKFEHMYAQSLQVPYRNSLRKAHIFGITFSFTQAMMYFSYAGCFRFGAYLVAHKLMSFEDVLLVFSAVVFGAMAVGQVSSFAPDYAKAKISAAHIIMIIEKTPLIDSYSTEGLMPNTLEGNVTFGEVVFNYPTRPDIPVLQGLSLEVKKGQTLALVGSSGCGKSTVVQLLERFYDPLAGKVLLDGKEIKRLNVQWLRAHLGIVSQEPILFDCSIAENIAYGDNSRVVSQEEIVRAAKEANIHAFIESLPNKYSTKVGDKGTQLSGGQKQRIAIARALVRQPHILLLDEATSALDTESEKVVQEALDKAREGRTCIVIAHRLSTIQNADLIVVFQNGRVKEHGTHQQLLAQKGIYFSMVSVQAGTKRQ
T1 sequence (P08183 whole entry): as above

For `CNCC[C@@H](Oc1ccccc1C)c1ccccc1` [atomoxetine], in [1], the “Kp,uu (unbound drug concentration in CNS relative to plasma)” value is listed as over 2. In addition, the “efflux ratio (ER)” value at human P-gp [2] is given as over 3.
Consider `CN(C)CCCC1(c2ccc(F)cc2)OCc2cc(C#N)ccc21` (stereo not shown) [citalopram], for which, at human P-gp [3], the P-gp substrate identification result was “P-gp substrates”.
In the case of `C[C@H]1O[C@@H](O[C@H]2[C@@H](O)C[C@H](O[C@H]3[C@@H](O)C[C@H](O[C@H]4CC[C@@]5(C)[C@H](CC[C@@H]6[C@@H]5C[C@@H](O)[C@]5(C)[C@@H](C7=CC(=O)OC7)CC[C@]65O)C4)O[C@@H]3C)O[C@@H]2C)C[C@H](O)[C@@H]1O` [digoxin], the Papp A→B at 120 min at P-gp (human MDR1) worked out at 0.28 ± 0.03 ×10⁻⁶ cm/s; in [4] (read-out: PA-B (apparent permeability, apical to basolateral)), 0.05 ± 0.05 ×10⁻⁶ cm/s; in the data set on P-gp (rat Mdr1a) (setting [9]) it was 0.35 ± 0.03 ×10⁻⁶ cm/s; in the data set on P-gp (rat Mdr1a) (pH 7.4, permeability in the A–B direction, early passages (5–7)) it was 0.37 ± 0.1 ×10⁻⁶ cm/s; in the data set with P-gp (rat Mdr1a) (pH 7.4, permeability in the A–B direction, late passages (14–16)) it was 0.68 ± 0.62 ×10⁻⁶ cm/s. Also, the Papp B→A at 120 min in data set [4] (read-out: PB-A (apparent permeability, basolateral to apical)) came to 0.13 ± 0.17 ×10⁻⁶ cm/s. Further, the Papp at 120 min in the data set on P-gp (rat Mdr1a) (pH 7.4, PB-A (apparent permeability in the efflux direction), late passages (14–16)) came to 16 ± 1 ×10⁻⁶ cm/s.
`CC[C@@H](C(N)=O)N1CCCC1=O` [levetiracetam]: the polarized transport entry was “showed polarized transport” in the data set with mouse Mdr1a and “no polarized transport could be observed” on human P-gp [5].
Consider `OC[C@@H](O)[C@@H](O)[C@H](O)[C@H](O)CO` [mannitol], for which the Papp A→B at 120 min is 0.25 ± 0.02 ×10⁻⁶ cm/s on P-gp (human MDR1) and 0.33 ± 0.12 ×10⁻⁶ cm/s in the data set on P-gp (rat Mdr1a) (setting [9]). Also, the values for the Papp B→A at 120 min at P-gp (human MDR1) and with P-gp (rat Mdr1a) (pH 7.4) were 0.37 ± 0.04 ×10⁻⁶ cm/s and 0.44 ± 0.11 ×10⁻⁶ cm/s, respectively. In addition, the efflux ratio at 120 min was found to be 1.4 at P-gp (human MDR1) and 1.5 in the data set on P-gp (rat Mdr1a) (IPEC-J2 rMdr1a monolayers). Moreover, the Papp at 120 min in [6] is 0.25 to 0.44 ×10⁻⁶ cm/s; in the data set with P-gp (rat Mdr1a) (pH 7.4, paracellular permeability, IPEC-J2 rMdr1a monolayers, conclusion summary), about 0.3 ×10⁻⁶ cm/s.
For `Cc1cc2c(s1)Nc1ccccc1N=C2N1CCN(C)CC1` [olanzapine], at P-gp (human MDR1), the Papp A→B at 120 min was determined as 23 ± 4 ×10⁻⁶ cm/s and the Papp B→A at 120 min was found to be 40 ± 3 ×10⁻⁶ cm/s. In the data set on P-gp (rat Mdr1a) (pH 7.4), the Papp A→B at 120 min worked out at 24 ± 3 ×10⁻⁶ cm/s and the Papp B→A at 120 min was 44 ± 3 ×10⁻⁶ cm/s.
On to `OCCN1CCN(CCCN2c3ccccc3Sc3ccc(Cl)cc32)CC1` [perphenazine], for which the “Kp,uu (unbound drug concentration in CNS relative to plasma)” value in data set [1] is recorded as over 2. Besides, on human P-gp [2], the “efflux ratio (ER)” value is given as over 3.
Regarding `O=C1NC(=O)C(c2ccccc2)(c2ccccc2)N1` [phenytoin], the polarized transport entry is “showed polarized transport” with mouse Mdr1a and “no polarized transport could be observed” at human P-gp [5].
Turning to `COc1ccc(C[C@H](N)C(=O)N[C@H]2[C@@H](O)[C@H](n3cnc4c(N(C)C)ncnc43)O[C@@H]2CO)cc1` [puromycin], the entries for the “cell survival under selection” value in the data set with IPEC-J2 mock cells [7] and in the data set on rMDR1a-transfected cells were “died within three days” and “survived the treatment”, respectively.
As to `CN1CCN(CCCN2c3ccccc3Sc3ccc(C(F)(F)F)cc32)CC1` [trifluoperazine], in data set [1], the “Kp,uu (unbound drug concentration in CNS relative to plasma)” value is given as over 2. Further, the “efflux ratio (ER)” value on human P-gp [2] is listed as over 3.
Take `CC[C@]1(O)C[C@@H]2CN(CCc3c([nH]c4ccccc34)[C@@](C(=O)OC)(c3cc4c(cc3OC)N(C)[C@H]3[C@@](O)(C(=O)OC)[C@H](OC(C)=O)[C@]5(CC)C=CCN6CC[C@]43[C@@H]65)C2)C1` [vinblastine]: the Papp A→B at 120 min stood at 1.5 ± 0.2 ×10⁻⁶ cm/s on P-gp (human MDR1) and 1.6 ± 0.2 ×10⁻⁶ cm/s with P-gp (rat Mdr1a) (setting [9]). In addition, the Papp B→A at 120 min at P-gp (human MDR1) came out at 19 ± 6 ×10⁻⁶ cm/s; in the data set with P-gp (rat Mdr1a) (pH 7.4), 20 ± 5 ×10⁻⁶ cm/s. Also, the efflux ratio at 120 min on P-gp (human MDR1) was determined as 12.4; in the data set with P-gp (rat Mdr1a) (IPEC-J2 rMdr1a monolayers), 12.8. The efflux ratio was 13 in the data set on rat Mdr1a P-gp (Figure 5 comparison series), 18.4 with rat Mdr1a and 12.5 in the data set on human MDR1.
With `O[C@@H](COc1cccc2ncccc12)CN1CCN([C@@H]2c3ccccc3[C@@H]3[C@H](c4ccccc42)C3(F)F)CC1` [zosuquidar], the “effect on efflux transport of digoxin” value in the data set on rat Mdr1a P-gp (0.4 µM zosuquidar) is reported as “completely blocked”. The “effect on digoxin transport” value in the data set on IPEC-J2 mock cells [8] is recorded as “did not affect digoxin transport”.
